The values that follow come from PubChem BioAssay AID1918956 (Molecular Pharmacology Branch, DTP, NCI, 2023).

pIC50: −log10 of the molar value. Several values for one entry are separate records, joined by “and”; a condition that tells them apart may be missing. Identical values can stand only once.

The test system of this assay is OVCAR-5 complex spheroids, viability. Kind of assay: Anticancer human tumor OVCAR-5 cell line growth inhibition.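 On all read-outs here: spheroids exposed to agents for seven days.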 Conditions: for viability, T/C: stronger effect = lower value; for pIC50: curve of compound. The source says:
Multicellular complex tumor spheroid response to LSD1 Inhibitor Iadademstat in combination with a variety of drugs and investigational agents in selected tumor cell lines
The current study was undertaken to assess response to LSD1 inhibitors in combination with standard-of-care drugs and investigational agents in solid tumor complex spheroid models as well as in the K-562 leukemia. Complex spheroids include a stromal component modeled by human endothelial cells (HUVEC) and fibroblasts modeled by human mesenchymal stem cells (MSCs). The concentration ranges selected for each drug and investigational agent were based upon clinically achievable concentrations if the clinical Cmax of the agent was known.
Compounds. The drugs and investigational agents used in this study are listed on Table 1. All of the agents used, including staurosporine (NSC755774) and gemcitabine (NSC613327), were obtained from the Developmental Therapeutics Program, NCI. FDA-approved anticancer drugs are available from the NCI at http://dtp.nci.nih.gov/branches/dscb/oncology_drugset_explanation.html. Drugs and investigational agents were >95% pure by proton nuclear magnetic resonance (NMR) and liquid chromatography/mass spectrometry (LC/MS). Stock solutions were prepared at 400x in DMSO, stored at -70 degrees C, and diluted in fresh medium prior to their use. The final concentration of DMSO in cell culture wells never exceeded 0.25% (v/v). The FDA-approved anticancer drug set is available from the Developmental Therapeutics Program at https://dtp.cancer.gov/organization/dscb/obtaining/available_plates.htm. All drugs and investigational agents were tested over a range starting from a high concentration at or near the clinical Cmax and decreasing in half-log increments. If the clinical Cmax for an agent had not been determined, the highest concentration tested was 10 microM.
Cell Lines. The patient-derived cancer cell (PDC) lines: 292921-168-R-J2-PDC, K24384-001-R-PDC, and 521955-158-R2-J5-PDC pancreatic carcinomas, 556581-035-R-J1 ovarian carcinoma, 324938-238-R-J1-PDC, 855422-203-R-J1-PDC and 883617-216-R-J1-PDC urothelial bladder carcinomas, 743489-274-T-PDC renal cell carcinoma, 138582-R-J1 Merkel cell tumor, K60290-347-R-J1 and K57222-313-R-J1-PDC glioblastomas, 653999-131-R-J2-PDC, LG0703-F948-PDC, and 349418-098-R-PDC non-small cell lung carcinomas, 885512-296-R-J2-PDC, 171881-019-R-J1-PDC breast carcinomas and 186277-243-T-J2-PDC and 233499-124-R-J2-PDC colon carcinomas were obtained from the NCI Patient-Derived Models Repository (PDMR, https://pdmr.cancer.gov). The established cell lines NCI/ADR-RES (RRID:CVCL_14520 and OVCAR-5 (RRID:CVCL_1628) ovarian carcinomas, 786-O (RRID:CVCL_1051) and A498 […] renal cell carcinoma, NCI-H211 (ATCC, cat. CRL-5824; RRID:CVCL_1529), NCI-H196 (ATCC, cat. CRL-5823, RRID:CVCL_1509), SW 1271 (ATCC, cat. CRL-2177, RRID:CVCL_1716) and NCI-H1876 (ATCC, cat. CRL-5902, RRID:CVCL_1503) small cell lung carcinomas, MDA-MB-231 (RRID:CVCL_0062) and MDA-MB-468 (RRID:CVCL_0419)breast carcinomas (10-12). Pooled donor human umbilical vein endothelial cells (HUVEC, Lonza, cat. CC-2519) and human mesenchymal stem cells (hMSC, Lonza, cat. PT-2501) were purchased from Lonza (Walkersville, MD).
Cell Culture. All cells were maintained in an incubator at 37 degrees C and 5% CO2 with 95% humidity. The PDC lines were cultured according to standard operating procedures established by the NCI PDMR (https://pdmr.cancer.gov). Briefly all PDCs were thawed and cultured in Matrigel-coated flasks prepared with a working solution of 1X Ham's F-12 nutrient mix, without supplementation (Invitrogen, Waltham, MA, cat. 11765054), 100 U/mL penicillin-streptomycin (Invitrogen, cat. 15140122), and 2.5% Matrigel (Corning Inc., Corning, NY, cat. 354248) for the first three passages. […]

On to `Cn1ncnc1C1c2n[nH]c(=O)c3cc(F)cc(c23)NC1c1ccc(F)cc1` (stereo not drawn), for which the pIC50 (as a rule, −log10 of the IC50, conventionally taken in molar units) was under 7.00. Besides, the viability, T/C (usually the result in the treated group divided by that in the control group, in per cent) (compound 0.000316 µM) is 96.3% and 102%. Where the note is “compound 0.001 µM”, the viability, T/C is 91.2% and 102%. The viability, T/C (compound 0.00316 µM) was 89% and 98.7%. Moreover, under “compound 0.01 µM”, the viability, T/C was 93.4% and 95.9%. Further, the viability, T/C (compound 0.0316 µM) was 90.2% and 86%. Also, under “compound 0.1 µM”, the viability, T/C is 99.8% and 93.8%.

For `NS(=O)(=O)OCC1CC(n2ccc3c(NC4CCc5ccccc54)ncnc32)CC1O` (stereo not drawn), the pIC50 was 6.66 and 6.76. For the setting “compound 0.00949 µM”, the viability, T/C was 105% and 120%. Besides, the viability, T/C (compound 0.03 µM) was 102% and 114%. Further, the viability, T/C (compound 0.0949 µM) was 82.6% and 75.8%. For the same compound, for the setting “compound 0.3 µM”, the viability, T/C is 37.4% and 25.6%. Moreover, for the setting “compound 0.949 µM”, the viability, T/C is 16.1% and 7.66%. Also, the viability, T/C (compound 3 µM) is 9.41% and 4.92%.

As for `Nc1ccccc1NC(=O)c1ccc(CNC(=O)OCc2cccnc2)cc1`, the pIC50 is 6.71 and 6.82. Moreover, the viability, T/C (compound 0.00949 µM) was 102% and 86.1%. Also, the viability, T/C (compound 0.03 µM) is 81.6% and 80.2%. The viability, T/C (compound 0.0949 µM) was 63.8% and 59.6%. Moreover, the viability, T/C (compound 0.3 µM) is 41.9% and 34.8%. The viability, T/C (compound 0.949 µM) was 23.9% and 19.3%. Further, the viability, T/C (compound 3 µM) is 8.2% and 8.35%.

On to `Nc1ccn(C2OC(CO)C(O)C2(F)F)c(=O)n1` (stereo not drawn), for which the pIC50 is over 9.02. Further, the viability, T/C (compound 0.000949 µM) was 27.5% and 26.9%. The viability, T/C (compound 0.003 µM) was 29.6% and 29.3%. Also, the viability, T/C (compound 0.00949 µM) was 29.2% and 28.1%. Besides, the viability, T/C (compound 0.03 µM) was 28.8% and 29.1%. The viability, T/C (compound 0.0949 µM) was 30.1% and 28.8%. In addition, the viability, T/C (compound 0.3 µM) was 29.1% and 28.3%.

Regarding `Nc1ncn(C2CC(O)C(CO)O2)c(=O)n1` (stereo not drawn), the pIC50 was under 6.00. The viability, T/C (compound 0.00316 µM) is 93.5% and 108%. For the same compound, the viability, T/C (compound 0.01 µM) is 94% and 87.9%. Besides, the viability, T/C (compound 0.0316 µM) is 88.2% and 75.7%. Also, the viability, T/C (compound 0.1 µM) is 77.1% and 76.2%. Besides, for the setting “compound 0.316 µM”, the viability, T/C is 72.5% and 69%. The viability, T/C (compound 1 µM) was 72.5% and 69.2%.

For the compound `Nc1ncn(C2CC(O)C(CO)S2)c(=O)n1` (stereo not drawn), the pIC50 was under 6.52. For the same compound, under “compound 0.000949 µM”, the viability, T/C is 107% and 104%. In addition, the viability, T/C (compound 0.003 µM) is 104% and 109%. For the same compound, where the note is “compound 0.00949 µM”, the viability, T/C is 104%. Moreover, for the setting “compound 0.03 µM”, the viability, T/C is 97.1% and 94.2%. Moreover, for the setting “compound 0.0949 µM”, the viability, T/C is 82.2% and 85.6%. Moreover, the viability, T/C (compound 0.3 µM) is 78.2% and 72.3%.

In the case of `O=C(C=Cc1cccc(S(=O)(=O)Nc2ccccc2)c1)NO`, the pIC50 was 6.81 and 6.93. The viability, T/C (compound 0.00949 µM) was 89.1% and 94.7%. The viability, T/C (compound 0.03 µM) is 88.7% and 80.5%. Further, the viability, T/C (compound 0.0949 µM) is 61.9% and 55.5%. For the same compound, the viability, T/C (compound 0.3 µM) was 31.6% and 27.4%. For the same compound, the viability, T/C (compound 0.949 µM) is 15.4% and 10.4%. Moreover, the viability, T/C (compound 3 µM) was 4.04% and 2.72%.

As to `O=C(C=Cn1cnc(-c2cc(C(F)(F)F)cc(C(F)(F)F)c2)n1)NNc1cnccn1`, the pIC50 is 6.71 and 7.20. In addition, for the setting “compound 0.00316 µM”, the viability, T/C is 91.8% and 90.3%. Also, the viability, T/C (compound 0.01 µM) is 83.9% and 74.8%. Further, where the note is “compound 0.0316 µM”, the viability, T/C is 72.3% and 58.3%. For the same compound, the viability, T/C (compound 0.1 µM) was 53.3% and 44%. Moreover, the viability, T/C (compound 0.316 µM) is 48.7% and 38.9%. In addition, the viability, T/C (compound 1 µM) is 40.4% and 34.1%.

In the case of `O=C(c1cc(Cc2n[nH]c(=O)c3ccccc23)ccc1F)N1CCN(C(=O)C2CC2)CC1`, the pIC50 was under 5.00. The viability, T/C (compound 0.0316 µM) was 92.2% and 111%. In addition, the viability, T/C (compound 0.1 µM) was 109% and 98.7%. Moreover, under “compound 0.316 µM”, the viability, T/C was 95.8% and 102%. Moreover, under “compound 1 µM”, the viability, T/C is 90.8% and 91.7%. Besides, the viability, T/C (compound 3.16 µM) was 87.7% and 73.7%. Besides, the viability, T/C (compound 10 µM) is 79.7% and 69.6%.
